Target: T1, human GR (Homo sapiens, UniProt P04150)
T1 construct: naturally expresses the human GR; endogenous in cells
T1 sequence (P04150 1-777): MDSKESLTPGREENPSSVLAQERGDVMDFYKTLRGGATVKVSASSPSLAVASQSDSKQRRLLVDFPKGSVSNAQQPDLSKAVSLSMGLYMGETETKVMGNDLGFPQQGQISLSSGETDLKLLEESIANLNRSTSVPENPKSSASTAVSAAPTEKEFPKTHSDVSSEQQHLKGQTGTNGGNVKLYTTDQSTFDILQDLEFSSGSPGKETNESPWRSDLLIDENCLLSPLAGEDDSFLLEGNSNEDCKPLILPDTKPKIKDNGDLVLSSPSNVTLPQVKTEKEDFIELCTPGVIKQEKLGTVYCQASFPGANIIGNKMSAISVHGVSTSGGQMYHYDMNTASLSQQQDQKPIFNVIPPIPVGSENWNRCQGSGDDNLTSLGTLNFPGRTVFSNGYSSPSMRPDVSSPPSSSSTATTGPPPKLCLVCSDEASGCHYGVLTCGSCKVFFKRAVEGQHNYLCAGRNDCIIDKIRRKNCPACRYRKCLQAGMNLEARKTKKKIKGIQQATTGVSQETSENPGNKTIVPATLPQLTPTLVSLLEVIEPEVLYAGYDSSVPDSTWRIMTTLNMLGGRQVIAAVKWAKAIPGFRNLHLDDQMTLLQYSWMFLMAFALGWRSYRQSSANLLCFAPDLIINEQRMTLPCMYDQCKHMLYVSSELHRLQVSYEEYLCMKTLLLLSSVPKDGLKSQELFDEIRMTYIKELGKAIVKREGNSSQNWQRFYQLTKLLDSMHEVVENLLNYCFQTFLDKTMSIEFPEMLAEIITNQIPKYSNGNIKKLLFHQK
Test: Transrepression assay (GITAR), TNFα-β-lactamase reporter in U937 cells
Format: cell-based
Conditions: for EC50: U937 cells, IP = inflection point; for Emax: U-937, U937 cells, activity repressed by 100 nM dexamethasone alone set as 100%
Excerpt: Transrepression Assay (GITAR)
This assay assesses the ability of test compounds to control transcription from the TNFα-β-lactamase reporter gene in U937 cells, a human myelomonocytic leukemia cell line that naturally expresses the human GR. The assay measures compound dependent-repression of the TNFa promoter linked to a reporter gene.
The human U937 cells that had been stablely transfected with the TNF-a promoter driving ˜-lactamase are used for this assay. U937 cells contain an endogenous glucocorticoid receptor (GR). Cells are maintained in RPMI 1640 Growth medium (GibcoCat#11875-093) containing 25 mM HEPES, 10% FBS, 2 mM L-Glutamine, 1 mM Sodium pyruvate, 25 μg/ml Gentamicin (Gibed Cat#1571 0-064), 1:1000 2-Mercaptoethanol (Gibco Cat#21985-023) and 0.8 mg/ml G418 (Gibco Cat#10131-027). The density of the cells in the flask needs to be about 1×10^6-3×10^6/ml at the time of harvest. Usually, the cells are split to 1.2˜1.4×10^5/ml (1:10) 3 days prior to the assay. 50,000 cells/well are plated in 96 well black-walled plates the day of assay. Test compounds are added 10 J.lL/well, and cells are incubated at 37° C. for 30˜45 min. For assaying compounds, first dilute 1:10 in DMSO to make 1 mM, then further dilute 1:100 in medium to make 10× stock prior to adding to the cells. Add 50 ng/ml PMA (Sigma, cat#P8139) 10 μL/well to a final concentration 5 ng/ml, and 1 μg/ml LPS (Sigma, cat#L4130) 10 μL/well to a final concentration 100 ng/ml. Incubate cells at 370 C overnight for −18 hr. PMA is stored frozen as […] in DMSO. Dilute 1:10 in DMSO for a working stock of 10 μg/ml and store at −20° C. For assaying, dilute the 10 μg/ml working stock 1:200 in medium to make a 10× solution (50 ng/ml). Store frozen LPS at 1 mg/ml in PBS, dilute 1:1000 in medium to make 10×μg/ml) for the assay. Add 6× loading buffer (CCF2-AM) 20 μL/well, and incubate at room temperature for 70-90 min. […] The activity repressed by 100 nM dexamethasone alone is set as 100% activity.

SMILES	EC50 [nM]	Emax [%]
CC[C@]12Cc3cnn(-c4ccc(F)cc4)c3C=C1CC[C@@]2(O)CCc1ncccc1S(=O)(=O)C(C)C [Example 62, (4aS,5R)-4a-Ethyl-1-(4-fluorophenyl)-5-{2-[3-(propan-2-ylsulfonyl)pyridin-2-yl]ethyl}-1,4,4a,5,6,7-hexahydrocyclopenta[f]indazol-5-ol]	12	85
CC(C)(CO)NC(=O)c1cc(F)cnc1CC[C@]1(O)CCC2=Cc3c(cnn3-c3ccc(F)cc3)C[C@@]21C1CC1 [Example 48, 2-{2-[(4aR,5R)-4a-Cyclopropyl-1-(4-fluorophenyl)-5-hydroxy-1,4,4a,5,6,7-hexahydrocyclopenta[f]indazol-5-yl]ethyl}-5-fluoro-N-(1-hydroxy-2-methylpropan-2-yl)pyridine-3-carboxamide]	9	87
NC(=O)Cc1ccccc1CC[C@]1(O)CCC2=Cc3c(cnn3-c3ccc(F)cc3)C[C@@]21C1CC1 [Example 56, 2-(2-{2-[(4aR,5S)-4a-Cyclopropyl-1-(4-fluorophenyl)-5-hydroxy-1,4,4a,5,6,7-hexahydrocyclopenta[f]indazol-5-yl]ethyl}phenyl)acetamide]	95	78
CC[C@]12Cc3cnn(-c4ccc(F)cc4)c3C=C1CC[C@@]2(O)CCc1cc(F)ccn1 [Example 18, (4aS,5R)-4a-Ethyl-1-(4-fluorophenyl)-5-[2-(4-fluoropyridin-2-yl)ethyl]-1,4,4a,5,6,7-hexahydrocyclopenta[f]indazol-5-ol]	74	80
CC[C@]12Cc3cnn(-c4cccnc4)c3C=C1CC[C@@]2(O)CCc1cccc(F)c1C#N [Example 10, 2-{2-[(4aS,5R)-4a-Ethyl-5-hydroxy-1-(pyridin-3-yl)-1,4,4a,5,6,7-hexahydrocyclopenta[f]indazol-5-yl]ethyl}-6-fluorobenzonitrile]	113	64
CC[C@]12Cc3cnn(-c4ccc(F)cc4)c3C=C1CC[C@@]2(O)CCc1cccc(F)c1CC(N)=O [Example 60, 2-(2-{2-[(4aS,5R)-4a-Ethyl-1-(4-fluorophenyl)-5-hydroxy-1,4,4a,5,6,7-hexahydrocyclopenta[f]indazol-5-yl]ethyl}-6-fluorophenyl)acetamide]	24	84
NC(=O)c1ccccc1CC[C@]1(O)CCC2=Cc3c(cnn3-c3cccc(F)c3)C[C@@]21C1CC1 [Example 7, 2-{2-[(4aR,5R)-4a-Cyclopropyl-1-(3-fluorophenyl)-5-hydroxy-1,4,4a,5,6,7-hexahydrocyclopenta[f]indazol-5-yl]ethyl}benzamide]	143	67
NC(=O)CNC(=O)c1cc(F)cnc1CC[C@]1(O)CCC2=Cc3c(cnn3-c3ccc(F)cc3)C[C@@]21C1CC1 [Example 44, N-(2-Amino-2-oxoethyl)-2-{2-[(4aR,5R)-4a-cyclopropyl-1-(4-fluorophenyl)-5-hydroxy-1,4,4a,5,6,7-hexahydrocyclopenta[f]indazol-5-yl]ethyl}-5-fluoropyridine-3-carboxamide]	38	86
CC[C@]12Cc3cnn(-c4ccccc4)c3C=C1CC[C@@]2(O)CCc1cccc(F)c1C#N [Example 15, 2-{2-[(4aS,5R)-4a-Ethyl-5-hydroxy-1-phenyl-1,4,4a,5,6,7-hexahydrocyclopenta[f]indazol-5-yl]ethyl}-6-fluorobenzonitrile]	114	89
COc1ccnc(CC[C@]2(O)CCC3=Cc4c(cnn4-c4ccc(F)cc4)C[C@@]32C2CC2)c1C(F)C(N)=O (stereo partly drawn) [Example 66, 2-(2-{2-[(4aR,5R)-4a-Cyclopropyl-1-(4-fluorophenyl)-5-hydroxy-1,4,4a,5,6,7-hexahydrocyclopenta[f]indazol-5-yl]ethyl}-4-methoxypyridin-3-yl)-2-fluoroacetamide]	12	76
